Test results as given in US20220054588A1, “USE OF SAP FOR THE TREATMENT OF EUROTIOMYCETES FUNGI INFECTIONS” (HUMANITAS MIRASOLE S.P.A., priority 2018, published 2022).

Columns and labels:
[1] = test system: A. fumigatus conidia; experiment: Resazurin-based fungal viability assay; set-up: species or system Aspergillus fumigatus; conditions: for microbicidal activity: 1 min, conidia pre-opsonised with human SAP
Method: FIG. 12 depicts the therapeutic efficacy of SAP in treatment of invasive aspergillosis. a) b) c) survival of transiently immunosuppressed wt mice after injection with the indicated doses of AF conidia. The curve of untreated mice (n=3) with cyclophosphamide is also shown (a). Human SAP (4 mg/Kg) was injected at 2 h and 24 h after infection. a) AF 5.10^7, n=17; AF 5.10^7+SAP, n=15; b) AF 1.10^7, n=7; AF 1.10^7+SAP, n=8; c) AF 5.10^6, n=8; AF 5.10^6+SAP, n=10.***, P<0.005 SAP-treated vs. saline (Mantel-Cox test). One-way ANOVA, P<0.0001. d) lung CFU in mice treated with cyclophosphamide and infected with 1.10^7 AF conidia.*, P<0.05 (Mann-Whitney test). e) quantitative analysis of AF viability performed using a resazurin-based assay. Plasma (30%) from wt and Apcs^−/− mice were incubated (1 min) with 1.5×10^5 AF conidia pre-opsonized or not with SAP. Results are mean±SD of red fluorescence (excitation/emission 535/580-610 nm) intensity of the resazurin once reduced to resorufin within viable cells. Effect of Posaconazole (POC; 1 μM) exposure is also shown. Results are mean±SEM relative to the condition without serum (grey symbols) of two experiments performed with n=10 mice/group. […] AF viability assay performed in sera depleted from complement components. Figure summarizes one experiment out of 5 also conducted with serum 10%. Mean±SD.*, P<0.05; **, P<0.01 (unpaired t-test). g) and h) FACS analysis of MAC deposition on AF conidia (1×10^7) in presence of sera depleted from complement components (e) and the effect of SAP (f). Mean±SEM of 2 experiments performed out of 4. e, f,*, P<0.05;**, P<0.01;***, P<0.005;****, P<0.001; (Mann-Whitney test).
Fungal viability assay. Effect of SAP on A. fumigatus killing was evaluated by a resazurin-based cell viability assay as described (Mantovani et al., 2010). A volume of 10 μl PBS, pH 7.4, containing 1.5×10^5 conidia eventually opsonized with human SAP (100 μg/ml per 1×10^9 conidia, 1 h at r.t.) was placed into sterile round bottom Corning® 96-well polypropylene microplate and incubated for 1 and 30 min at 37° C. with 20 μl of 10 and 30% plasma-heparin from wt and Apcs^−/− mice or human serum and different complement component-depleted sera. After incubation, plates were immediately cooled on ice and cold-centrifuged (2000 rpm, 10 min at 4° C.), and then supernatant removed. Conidia not incubated with plasma or serum were used as a negative control. Conidia treated with the fungicide drug Posaconazole (POC; 1 μM) were considered as positive control in the assay. […] After 17 h reaction at 37° C., fluorescence (excitation/emission at ≈530-560/590 nm) intensity was measured by microplate reader Synergy™ H4 (BioTek, France). Results represent ratio of fluorescence intensity values relative to those measured in negative controls. […]

[2] = test system: complement activation on A. fumigatus conidia; experiment: Complement C3 deposition on A. fumigatus conidia and C5a formation in mouse plasma; assay type: biochemical; conditions: Sap-opsonised conidia
Method: FIG. 6 depicts the effect of SAP on complement activation on A. fumigatus. a) FACS analysis of plasma C3 deposition on AF conidia (1×10^7) opsonized or not with Sap. b) plasma C5a levels after incubation with AF conidia shown in a. a) and b) n=10 mouse plasma/genotype. b) representative experiment out of three performed. a) and b) Mean±SEM.*, P<0.05;**, P<0.01;***, P<0.005;****, P<0.0001 (unpaired t-test).
Complement deposition on Aspergillus fumigatus. A volume of 10 μl PBS, pH 7.4, containing 1×10^7 conidia eventually opsonized with murine SAP (100 μg/ml per 1×10^9 conidia, 1 h at r.t.) was incubated (37° C.) in round bottom wells of Corning® 96-well polypropylene microplates for the indicated time points with 20 μl mouse plasma-heparin or 20 μl human NS and complement depleted sera (diluted in PBS at 10% and 30%). Complement deposition was blocked by addition of EDTA (10 mM final concentration) and by cooling in ice. After centrifugation (2000 rpm, 10 min at 4° C.), when indicated supernatant was collected for C5a measurement by ELISA. […] Conidia were then incubated (1 h, at 4° C.) with Alexa Fluor® 488 and 647-conjugated species-specific cross-adsorbed detection antibodies (2 μg/ml; ThermoFisher Scientific-Molecular Probes) and analysed by BD FACS Canto™ II Flow Cytometer (BD Biosciences) using forward and side scatter parameters to gate on at least 8,000 conidia. […] Results were expressed as frequency of conidia showing fluorescence compared with irrelevant controls and as geometric conidia MFI.
Proteins. […] Purity of the recombinant protein was assessed by SDS-PAGE followed by silver staining. […] SAP levels were measured in mouse plasma by ELISA (DuoSet ELISA; R&D Systems). Murine TNF-α, CCL2, MPO were measured by ELISA (DuoSet ELISA; R&D Systems). Murine C5a was measured either in plasma-heparin or in BALFs previously stored at −80° C. by DuoSet ELISA (R&D Systems) maintaining EDTA (10 mM) throughout the assay in order to stop the activation of the complement cascade.

Molecule | microbicidal activity ([1]; Apcs−/− mouse plasma) | SAP effect on microbicidal activity ([1]; human serum depleted of C1q) | SAP effect on microbicidal activity ([1]; human serum depleted of C3) | microbicidal activity ([1]; wt mouse plasma) | in vitro C3 deposition on A. fumigatus conidia ([2]; Apcs−/− and wt plasma) | C5a formation ([2]; Apcs−/− plasma, 1, 5, 10, 20 min) | C5a formation ([2]; wt plasma)
human native SAP: Native SAP from human serum purchased by Merck-Millipore; Serum Amyloid P component, SEQ ID NO: 1 | increase of microbicidal activity | abolished | abolished | increase of microbicidal activity | – | – | –
recombinant murine SAP: recombinant murine SAP from mouse myeloma cell line NSO (R&D Systems) (protein, UniProt P12246 21-224, looked up) Serum amyloid P-component: QTDLKRKVFVFPRESETDHVKLIPHLEKPLQNFTLCFRTYSDLSRSQSLFSYSVKGRDNELLIYKEKVGEYSLYIGQSKVTVRGMEEYLSPVHLCTTWESSSGIVEFWVNGKPWVKKSLQREYTVKAPPSIVLGQEQDNYGGGFQRSQSFVGEFSDLYMWDYVLTPQDILFVYRDSPVNPNILNWQALNYEINGYVVIRPRVWD | – | – | – | – | rescued or increased | rescued | increased
